Experimental data as given in patent publication US4508648A, “Phosphoric ester of antibiotic OA-6129” (Sanraku-Ocean Co., Ltd., priority 1981, dated 1985).
≈ marks a conversion by molar mass, not a printed value. Where two headings read alike, the source gives them in different places.

Key:
[1] = Relative stability in kidney homogenate of man; type: in vitro ADME; details: human (man) kidney homogenate; 37° C., 60 minutes; drug solution 100-300 μg/ml; read-out: Relative stability: drug remaining as a percentage of initial concentration
Method: (§1) *A drug solution (100-300 μg/ml) (0.1 ml) and a kidney homogenate (0.1
(§2) ml) were allowed to react at 37° C. for 60 minutes and the mixture
(§3) was immediately heattreated at 100° C. for 15 seconds. After
(§4) centrifugation, the concentration of the drug remaining in the supernatan
(§5) solution was bioassayed as a percentage of initial concentration by
(§6) Comamonas terrigena B996.
(§7) An overnight culture of Comamonas terrigena B-996 on a nutrient agar slant was suspended in nutrient broth to give a cell suspension of absorbance 0.04 at 610 nm. One percent of the cell suspension in volume was inoculated into molten agar medium containing 0.8% in weight of Kyokuto powdered bouillon (Kyokuto Pharmaceutical Co.) and 1.0% in weight of Bato-agar (Difco Lab.), and 7 ml each of the inoculated agar medium was poured into a 9 cm petri dish to make a Comamonas assay plate.

[2] = Relative stability in kidney homogenate of mouse; type: in vitro ADME; details: 37° C., 60 minutes, drug solution 100-300 μg/ml, read-out: Relative stability: drug remaining as a percentage of initial concentration
Method: as §1, §2, §3, §4, §5, §6, §7

[3] = Relative stability in phosphate buffer, pH 7.0 (control); type: physicochemical; details: 37° C., 60 minutes, drug solution 100-300 μg/ml, read-out: Relative stability: drug remaining as a percentage of initial concentration
Method: as §1, §2, §3, §4, §5, §6, §7

[4] = Relative stability in kidney homogenate of dog; type: in vitro ADME; details: 37° C., 60 minutes, drug solution 100-300 μg/ml, read-out: Relative stability: drug remaining as a percentage of initial concentration
Method: as §1, §2, §3, §4, §5, §6, §7

[5] = tested on: Staphylococcus aureus Smith; experiment: Minimum inhibitory concentration, agar dilution technique; type: cell-based; details: heart infusion agar, inoculum 10^6 cells/ml, read-out: Minimum Inhibitory Concentration (M.I.C.)
Source text: (§8) Minimum Inhibitory Concentration (M.I.C. in μg/ml)**
(§9) **Medium heartinfusion agar (Difco Lab.); inoculum size 10^6 cells/ml
(§10) determined by the agar dilution technique

[6] = tested on: Staphylococcus epidermidis; experiment: as above; type: cell-based; details: heart infusion agar, inoculum 10^6 cells/ml, read-out: Minimum Inhibitory Concentration (M.I.C.)
Source text: as §8, §9, §10

[7] = tested on: Staphylococcus aureus 209P; experiment: as above; type: cell-based; details: heart infusion agar, inoculum 10^6 cells/ml, read-out: Minimum Inhibitory Concentration (M.I.C.)
Source text: as §8, §9, §10

Providencia sp. P-8 = experiment: as above; type: cell-based
Source text: as §8, §9, §10

[8] = tested on: Staphylococcus aureus Russell; experiment: as above; type: cell-based; details: heart infusion agar, inoculum 10^6 cells/ml, read-out: Minimum Inhibitory Concentration (M.I.C.)
Source text: as §8, §9, §10

Sarcina lutea = experiment: as above; type: cell-based; details: Micrococcus luteus; heart infusion agar; inoculum 10^6 cells/ml; read-out: Minimum Inhibitory Concentration (M.I.C.)
Source text: as §8, §9, §10

Proteus mirabilis P-6 = experiment: as above; type: cell-based; details: P6, heart infusion agar, inoculum 10^6 cells/ml, read-out: Minimum Inhibitory Concentration (M.I.C.)
Source text: as §8, §9, §10

Escherichia coli K-12 = experiment: as above; type: cell-based; details: K12, heart infusion agar, inoculum 10^6 cells/ml, read-out: Minimum Inhibitory Concentration (M.I.C.)
Source text: as §8, §9, §10

Proteus rettgeri P-6 = experiment: as above; type: cell-based; details: Providencia rettgeri, P6; heart infusion agar; inoculum 10^6 cells/ml; read-out: Minimum Inhibitory Concentration (M.I.C.)
Source text: as §8, §9, §10

[9] = tested on: Comamonas terrigena B-996; experiment: as above; type: cell-based; details: B996, heart infusion agar, inoculum 10^6 cells/ml, read-out: Minimum Inhibitory Concentration (M.I.C.)
Source text: as §8, §9, §10

[10] = tested on: Bacillus subtilis ATCC 6633; experiment: as above; type: cell-based; details: ATCC6633, heart infusion agar, inoculum 10^6 cells/ml, read-out: Minimum Inhibitory Concentration (M.I.C.)
Source text: as §8, §9, §10

Alcaligenes faecalis A1 = experiment: as above; type: cell-based; details: heart infusion agar, inoculum 10^6 cells/ml, read-out: Minimum Inhibitory Concentration (M.I.C.)
Source text: as §8, §9, §10

Enterobacter sp. E-8 = experiment: as above; type: cell-based; details: SP.E8, heart infusion agar, inoculum 10^6 cells/ml, read-out: Minimum Inhibitory Concentration (M.I.C.)
Source text: as §8, §9, §10

Proteus vulgaris GN76 = experiment: as above; type: cell-based; details: beta-lactam-resistant strain, heart infusion agar, inoculum 10^6 cells/ml, read-out: Minimum Inhibitory Concentration (M.I.C.)
Source text: as §8
(§11) *Beta-lactam-resistant strain.
as §9, §10

Escherichia coli RGN823 = experiment: as above; type: cell-based; details: RGN823, read-out: Minimum Inhibitory Concentration (M.I.C.)
Source text: as §8, §11, §9, §10

[11] = tested on: Klebsiella pneumoniae K13; experiment: as above; type: cell-based; details: K13, beta-lactam-resistant strain, heart infusion agar, inoculum 10^6 cells/ml, read-out: Minimum Inhibitory Concentration (M.I.C.)
Source text: as §8, §11, §9, §10

Enterobacter cloacae 45 = experiment: as above; type: cell-based; details: beta-lactam-resistant strain, heart infusion agar, inoculum 10^6 cells/ml, read-out: Minimum Inhibitory Concentration (M.I.C.)
Source text: as §8, §11, §9, §10

[12] = tested on: Pseudomonas aeruginosa NCTC 10490; experiment: as above; type: cell-based; details: NCTC10490, beta-lactam-resistant strain, heart infusion agar, inoculum 10^6 cells/ml, read-out: Minimum Inhibitory Concentration (M.I.C.)
Source text: as §8, §11, §9, §10

Serratia marcescens S-18 = experiment: as above; type: cell-based; details: S18, beta-lactam-resistant strain, heart infusion agar, inoculum 10^6 cells/ml, read-out: Minimum Inhibitory Concentration (M.I.C.)
Source text: as §8, §11, §9, §10

Proteus sp. P-22 = experiment: as above; type: cell-based; details: beta-lactam-resistant strain; heart infusion agar; inoculum 10^6 cells/ml; read-out: Minimum Inhibitory Concentration (M.I.C.)
Source text: as §8, §11, §9, §10

[13] = tested on: Citrobacter freundii GN346; experiment: as above; type: cell-based; details: beta-lactam-resistant strain, heart infusion agar, inoculum 10^6 cells/ml, read-out: Minimum Inhibitory Concentration (M.I.C.)
Source text: as §8, §11, §9, §10

[14] = tested on: Pseudomonas aeruginosa IFO 3445; experiment: as above; type: cell-based; details: IFO3445, beta-lactam-resistant strain, heart infusion agar, inoculum 10^6 cells/ml, read-out: Minimum Inhibitory Concentration (M.I.C.)
Source text: as §8, §11, §9, §10

Serratia marcescens T55 = experiment: as above; type: cell-based; details: beta-lactam-resistant strain, heart infusion agar, inoculum 10^6 cells/ml, read-out: Minimum Inhibitory Concentration (M.I.C.)
Source text: as §8, §11, §9, §10

[15] = tested on: Enterobacter aerogenes E-19; experiment: as above; type: cell-based; details: Klebsiella aerogenes, E19; beta-lactam-resistant strain; heart infusion agar; inoculum 10^6 cells/ml; read-out: Minimum Inhibitory Concentration (M.I.C.)
Source text: as §8, §11, §9, §10

SMILES | remaining at 1 h [1] [%] | remaining at 1 h [2] [%] | remaining at 1 h [3] [%] | remaining at 1 h [4] [%] | MIC [5] [µg/mL] | MIC [6] [µg/mL] | MIC [7] [µg/mL] | MIC [8] [µg/mL] | MIC (Sarcina lutea) [µg/mL] | MIC (Proteus mirabilis P-6) [µg/mL] | MIC (Escherichia coli K-12) [µg/mL] | MIC (Proteus rettgeri P-6) [µg/mL] | MIC [9] [µg/mL] | MIC [10] [µg/mL] | MIC (Alcaligenes faecalis A1) [µg/mL] | MIC (Enterobacter sp. E-8) [µg/mL] | MIC (Proteus vulgaris GN76) [µg/mL] | MIC (Escherichia coli RGN823) [µg/mL] | MIC [11] [µg/mL] | MIC (Enterobacter cloacae 45) [µg/mL] | also measured
CC(O)C1C(=O)N2C(C(=O)O)=C(SCCNC(=O)CCNC(=O)C(O)C(C)(C)CO)CC12 (centres unmarked) [Antibiotic OA-6129B] | 47 | 20 | 98 | 20 |  |  |  |  |  |  |  |  |  |  |  |  |  |  |  |  | 
CCC1C(=O)N2C(C(=O)O)=C(SCCNC(=O)CCNC(=O)C(O)C(C)(C)CO)CC12 (centres unmarked) [Antibiotic OA-6129A] | 57 | 7 | 100 | 25 | 1.56 (≈ 3.41 µM) | 1.56 (≈ 3.41 µM) | 0.78 (≈ 1.7 µM) | 0.78 (≈ 1.7 µM) | 6.25 (≈ 13.7 µM) | 50 (≈ 109 µM) | 12.5 (≈ 27.3 µM) | 25 (≈ 54.6 µM) | 0.05 (≈ 0.109 µM) | 0.39 (≈ 0.852 µM) | 1.56 (≈ 3.41 µM) | 12.5 (≈ 27.3 µM) | 100 (≈ 219 µM) | 12.5 (≈ 27.3 µM) | 50 (≈ 109 µM) | 50 (≈ 109 µM) | MIC (Providencia sp. P-8; SP.P8, read-out: Minimum Inhibitory Concentration (M.I.C.)): 12.5 µg/mL (≈ 27.3 µM); MIC [12]: > 100 µg/mL; MIC (Serratia marcescens S-18): 100 µg/mL (≈ 219 µM); MIC (Proteus sp. P-22): 100 µg/mL (≈ 219 µM); MIC [13]: 50 µg/mL (≈ 109 µM); MIC [14]: > 100 µg/mL; MIC (Serratia marcescens T55): 100 µg/mL (≈ 219 µM); MIC [15]: 25 µg/mL (≈ 54.6 µM)
Cc1nnc(SCC2=C(C(=O)O)N3C(=O)[C@@H](NC(=O)Cn4cnnn4)[C@H]3SC2)s1 [Cefazolin] |  |  |  |  | 0.2 (≈ 0.44 µM) | 0.2 (≈ 0.44 µM) | 0.05 (≈ 0.11 µM) | 0.2 (≈ 0.44 µM) | 0.39 (≈ 0.858 µM) | 6.25 (≈ 13.8 µM) | 1.56 (≈ 3.43 µM) | 3.13 (≈ 6.89 µM) | 0.1 (≈ 0.22 µM) | 0.1 (≈ 0.22 µM) | 3.13 (≈ 6.89 µM) | 1.56 (≈ 3.43 µM) | > 400 | 1.56 (≈ 3.43 µM) | 12.5 (≈ 27.5 µM) | > 400 | MIC (Providencia sp. P-8; SP.P8, heart infusion agar, inoculum 10^6 cells/ml, read-out: Minimum Inhibitory Concentration (M.I.C.)): 0.78 µg/mL (≈ 1.72 µM); MIC [12]: > 400 µg/mL; MIC (Serratia marcescens S-18): > 400 µg/mL; MIC (Proteus sp. P-22): > 400 µg/mL; MIC [13]: > 400 µg/mL; MIC [14]: > 400 µg/mL; MIC (Serratia marcescens T55): > 400 µg/mL; MIC [15]: > 400 µg/mL
